Data as given in patent US20250215039A1, “NUCLEOSIDES FOR TREATING CANCER” (PRIMEFOUR THERAPEUTICS, INC., priority 2022, published 2025).
Where two headings read alike, the source gives them in different places.

System: cancer cell lines
Test: Cancer cell proliferation activity (CellTiterGlo, 72 h)
Assay type: cell-based
Conditions: 72 h, 72 h, read-out: IC50
In short: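 Readout is CellTiterGlo luminescence after 72 h compound exposure (0.1% DMSO final), started one day post-seeding, at 37 °C.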

Work on `CC[C@]1(CO)O[C@@H](n2cnc3c(N)nc(F)nc32)[C@H](O)[C@@H]1O` [Cpd. No. 173, (2R,3S,4R,5R)-5-(6-amino-2-fluoro-9H-purin-9-yl)-2-ethyl-2-(hydroxymethyl)tetrahydrofuran-3,4-diol] yielded an IC50 (5637 cell line (bladder)) of 220 nM, an IC50 (AS49 cell line (lung)) of 240 nM and an IC50 (CLS439 cell line (bladder)) of 610 nM. It also gave an IC50 (HS729 cell line (muscle)) of 210 nM, an IC50 (JAR cell line (placenta)) of 50 nM and an IC50 (Homo sapiens, 22Rv1, 72 h, 22RV1 cell line (prostate)) of 220 nM. For the same compound, the IC50 (Homo sapiens, 786-0, 72 h, 786O cell line (kidney)) was 110 nM, the IC50 (Homo sapiens, A204, 72 h, A204 cell line (muscle)) was 70 nM and the IC50 (Homo sapiens, A673, 72 h, A673 cell line (bone)) was 570 nM. The IC50 (Homo sapiens, A2780, 72 h, A2780 cell line (ovary)) was 200 nM, the IC50 (Homo sapiens, A-375, 72 h, A375 cell line (skin)) was 140 nM and the IC50 (Homo sapiens, A-431, 72 h, A431 cell line (skin)) was 70 nM. It also gave an IC50 (Homo sapiens, ACHN, ACHN cell line (kidney)) of 280 nM, an IC50 (Homo sapiens, ASPC1, 72 h, ASPC1 cell line (pancreas)) of 50 nM and an IC50 (Homo sapiens, BT-20, 72 h, BT20 cell line (breast)) of 100 nM. The IC50 (Homo sapiens, BXPC-3, 72 h, BXPC3 cell line (pancreas)) was 210 nM, the IC50 (Homo sapiens, C-33-A, C33A cell line (cervical)) was 190 nM and the IC50 (Homo sapiens, CAKI-1, 72 h, CAKI1 cell line (kidney)) was 10 nM. For the same compound, the IC50 (Homo sapiens, COLO 205, 72 h, COLO205 cell line (colon)) was 260 nM, the IC50 (Homo sapiens, COLO-678, 72 h, COLO678 cell line (colon)) was 390 nM and the IC50 (Homo sapiens, Ca-Ski, CASKI cell line (cervical)) was 60 nM. It also gave an IC50 (Homo sapiens, Caco-2, 72 h, CACO2 cell line (colon)) of 280 nM, an IC50 (Homo sapiens, Calu-6, 72 h, CALU6 cell line (lung)) of 60 nM and an IC50 (Homo sapiens, DLD-1, 72 h, DLD1 cell line (colon)) of 260 nM. The IC50 (Homo sapiens, DU-145, 72 h, DU145 cell line (prostate)) was 20 nM, the IC50 (Homo sapiens, EFO-21, 72 h, EFO21 cell line (ovary)) was 130 nM and the IC50 (Homo sapiens, EJ-28, 72 h, EJ28 cell line (bladder)) was 90 nM. The IC50 (Homo sapiens, Granta-519, 72 h, GRANTA-519 cell line (hematological)) was 560 nM, the IC50 (Homo sapiens, HCT-15, 72 h, HCT15 cell line (colon)) was 300 nM and the IC50 (Homo sapiens, HCT-116, 72 h, HCT116 cell line (colon)) was 230 nM. It also gave an IC50 (Homo sapiens, HEK293, 72 h, HEK293 cell line (kidney)) of 140 nM, an IC50 (Homo sapiens, HL-60, 72 h, HL-60 cell line (hematological)) of 70 nM and an IC50 (Homo sapiens, HT-29, 72 h, HT29 cell line (colon)) of 160 nM. For the same compound, the IC50 (Homo sapiens, HT-1080, 72 h, HT1080 cell line (connective tissue)) was 720 nM, the IC50 (Homo sapiens, HeLa, HELA cell line (cervical)) was 110 nM and the IC50 (Homo sapiens, HepG2, 72 h, HEPG2 cell line (liver)) was 110 nM. For the same compound, the IC50 (Homo sapiens, Hs-578T, HS578T cell line, breast) was 90 nM, the IC50 (Homo sapiens, IGROV-1, 72 h, IGROV1 cell line (ovary)) was 50 nM and the IC50 (Homo sapiens, IMR-90, 72 h, IMR90 cell line, lung) was 150 nM. It also gave an IC50 (Homo sapiens, J82, 72 h, J82 cell line (bladder)) of 150 nM, an IC50 (Homo sapiens, JEG-3, 72 h, JEG3 cell line (placenta)) of 40 nM and an IC50 (Homo sapiens, JIMT-1, 72 h, JIMT1 cell line (breast)) of 20 nM. The IC50 (Homo sapiens, K562, 72 h, K-562 cell line (hematological)) was 500 nM, the IC50 (Homo sapiens, Kasumi 1, 72 h, KASUMI-1 cell line (hematological)) was 20 nM and the IC50 (Homo sapiens, L-363, 72 h, L-363 cell line (hematological)) was 40 nM. It also gave an IC50 (Homo sapiens, LoVo, LOVO cell line (colon)) of 40 nM, an IC50 (Homo sapiens, MCF7, 72 h, MCF7 cell line (breast)) of 2400 nM and an IC50 (Homo sapiens, MDA-MB-231, 72 h, MDAMB231 cell line (breast)) of 570 nM. The IC50 (Homo sapiens, MDA-MB-435, 72 h, MDAMB435 cell line (skin)) was 250 nM, the IC50 (Homo sapiens, MDA-MB-436, 72 h, MDAMB436 cell line (breast)) was 70 nM and the IC50 (Homo sapiens, MDA-MB-468, 72 h, MDAMB468 cell line (breast)) was 100 nM. For the same compound, the IC50 (Homo sapiens, MG-63, 72 h, MG63 cell line (bone)) was 2360 nM, the IC50 (Homo sapiens, MHH-ES-1, 72 h, MHHES1 cell line (bone)) was 120 nM and the IC50 (Homo sapiens, MIA PaCa-2, 72 h, MIAPACA2 cell line (pancreas)) was 2770 nM. The IC50 (Homo sapiens, MINO, MINO cell line (hematological)) was 30 nM, the IC50 (Homo sapiens, MV4-11, 72 h, MV4-11 cell line (hematological)) was 30 nM and the IC50 (Homo sapiens, NCI-H23, 72 h, NCI-H23 cell line (lung)) was 70 nM. It also gave an IC50 (Homo sapiens, NCI-H82, 72 h, NCIH82 cell line (lung)) of 70 nM, an IC50 (Homo sapiens, NCI-H292, 72 h, NCIH292 cell line (lung)) of 470 nM and an IC50 (Homo sapiens, NCI-H460, 72 h, NCIH460 cell line (lung)) of 150 nM. For the same compound, the IC50 (Homo sapiens, OVCAR-3, 72 h, OVCAR3 cell line (ovary)) was 80 nM, the IC50 (Homo sapiens, OVCAR-4, 72 h, OVCAR4 cell line (ovary)) was 130 nM and the IC50 (Homo sapiens, PANC-1, 72 h, PANC1 cell line (pancreas)) was 2820 nM. For the same compound, the IC50 (Homo sapiens, PC-3, 72 h, PC3 cell line (prostate)) was 130 nM, the IC50 (Homo sapiens, PLC-PRF-5, 72 h, PLCPRF5 cell line (liver)) was 630 nM and the IC50 (Homo sapiens, Panc1005, 72 h, PANC1005 cell line (pancreas)) was 130 nM. The IC50 (Homo sapiens, RD, RD cell line (muscle)) was 190 nM, the IC50 (Homo sapiens, Ramos, RAMOS cell line (hematological)) was 80 nM and the IC50 (Homo sapiens, SAOS-2, 72 h, SAOS2 cell line (bone)) was 100 nM. The IC50 (Homo sapiens, SF-268, 72 h, SF268 cell line (brain)) was 670 nM, the IC50 (Homo sapiens, SF-295, 72 h, SF295 cell line (brain)) was 440 nM and the IC50 (Homo sapiens, SK-BR-3, 72 h, SKBR3 cell line (breast)) was 10 nM. For the same compound, the IC50 (Homo sapiens, SK-HEP1, 72 h, SKHEP1 cell line (liver)) was 190 nM, the IC50 (Homo sapiens, SK-LMS-1, 72 h, SKLMS1 cell line (uterus)) was 90 nM and the IC50 (Homo sapiens, SK-MEL-5, 72 h, SKMEL5 cell line, skin) was 420 nM. For the same compound, the IC50 (Homo sapiens, SK-MEL-28, 72 h, SKMEL28 cell line (skin)) was 150 nM, the IC50 (Homo sapiens, SK-N-AS, SKNAS cell line (brain)) was 160 nM and the IC50 (Homo sapiens, SK-N-SH, SKNSH cell line (brain)) was 140 nM. The IC50 (Homo sapiens, SK-OV-3, 72 h, SKOV3 cell line (ovary)) was 100 nM, the IC50 (Homo sapiens, SNB-75, 72 h, SNB75 cell line (brain)) was 240 nM and the IC50 (Homo sapiens, SU-DHL10, 72 h, SU-DHL-10 cell line (hematological)) was 200 nM. The IC50 (Homo sapiens, SU-DHL-6, 72 h, SU-DHL-6 cell line (hematological)) was 50 nM, the IC50 (Homo sapiens, SW-620, 72 h, SW620 cell line (colon)) was 90 nM and the IC50 (Homo sapiens, T-24, 72 h, T24 cell line (bladder)) was 140 nM. For the same compound, the IC50 (Homo sapiens, TE-671, 72 h, TE671 cell line (muscle)) was 620 nM, the IC50 (Homo sapiens, THP-1, 72 h, THP-1 cell line (hematological)) was 980 nM and the IC50 (Homo sapiens, U2OS, U2OS cell line (bone)) was 80 nM. For the same compound, the IC50 (Homo sapiens, U-87 MG, U87MG cell line (brain)) was 380 nM, the IC50 (Homo sapiens, UMUC3, 72 h, UMUC3 cell line (bladder)) was 460 nM and the IC50 (Homo sapiens, UO-31, 72 h, UO31 cell line (kidney)) was 50 nM. It also gave an IC50 (Homo sapiens, WSU-NHL, WSU-NHL cell line (hematological)) of 40 nM, an IC50 (MT-3, 72 h, MT3 cell line (breast)) of 100 nM and an IC50 (NCI-H358M, NCIH358M cell line (lung)) of 150 nM. For the same compound, the IC50 (PBMC, PBMC (hematological)) was > 50000 nM and the IC50 (RD-ES, RDES cell line (bone)) was 60 nM.
